Laboratory results from patent US20080242688A1, “Method 741” (ASTRAZENECA AB, priority 2007, published 2008).

Assays:
[1] = Mass balance of [14C]-AZD0328 in rats; type: in vivo, rat
Experimental: In the mass balance study conducted in fed rats, a Tmax of 0.5 h to 1 h was observed following single and multiple oral doses (solution). The bioavailability of AZD0328 (total radioactivity) in this study was >90%. […] Generally speaking, the elimination was complete within the 24-hour interval at the dose levels tested.
Pharmacokinetics and mass balance of [^14C]-AZD0328 were investigated in rats. The excretion of [^14C]-AZD0328-derived radioactivity in rats was mainly through the kidney. Over the course of the study, radioactivity recovered in urine and feces accounted for approximately 85% and 8%, respectively.

Rat QWBA study = type: in vivo; details: single oral dose
Experimental: AZD0328 is a low protein binding molecule across species including human (<15%) across the concentration range 21.6 to […] (0.1 to 100 μM). In most species, the binding was concentration and gender independent. […] [14C]-AZD0328-derived radioactivity was rapidly distributed to the organs and tissues with high levels of radioactivity associated with the contents of the GI tract and the major excretion organs, including kidney and liver. The radioactivity declined rapidly and by 168 h postdose radioactivity levels were not detectable in most tissues, with the exception of a few ocular tissues and nasal turbinates. […] Notable association of [^14C]-AZD0328-related radioactivity with the melanin-containing tissues was observed, with measurable radioactivity still present in the ocular tissues at 216 h postdose. [14C]-AZD0328-derived radioactivity crossed the placenta.

[2] = Pharmacological activity of metabolite
Experimental: Pyridinyl methylation of AZD0328 was a unique polar metabolite (M2) observed in dog hepatocytes. Other minor hydroxylation/oxidation and glucuronide conjugation products were detected in monkey, dog, rat, and guinea pig hepatocyte incubations and mini-pig hepatic microsome incubations. […] Analysis of plasma and urine samples from either orally or iv dosed rats confirmed N-oxide product of AZD0328 was a main product in the excretion and circulation. The percentage of AZD0328 N-oxide in the plasma from male rats was much higher than from females.

| SMILES | radioactivity recovered in feces [1] | radioactivity recovered in urine [1] | time of maximum blood and plasma concentrations of radioactivity (Rat QWBA study) | pharmacological activity of metabolite [2] |
| --- | --- | --- | --- | --- |
| c1cnc2c(c1)C[C@@]1(CN3CCC1CC3)O2 [[^14C]-AZD0328] | ~8% | approximately 85% | 0.5 h |  |
| [O-][N+]12CCC(CC1)C1(Cc3cccnc3O1)C2 (stereo not shown) [quinuclidinyl-N-oxide of AZD0328] |  |  |  | pharmacological inactive |
